Measured values reported in patent US20210053957A1, “HERBICIDAL COMPOUNDS” (SYNGENTA PARTICIPATIONS AG, priority 2018, published 2021).

What was measured:
Assay in all cases: Post-emergence efficacy, glasshouse spray test
Format in all cases: in vivo
Eleusine indica (ELEIN) = settings: Application Rate 500 g/Ha, evaluated after 13 days; for pest or weed control at 500 g/ha: Eleusine indica, post-emergence, 312 h, read-out: Control of weed species after post-emergence application, ELEIN (100=total damage to plant; 0=no damage to plant)
Protocol: (§1) Seeds of a variety of test species were sown in standard soil in pots. After cultivation for 14 days (post-emergence) under controlled conditions in a glasshouse (at 24/16° C. day/night; 14 hours light; 65% humidity), the plants were sprayed with an aqueous spray solution derived from the dissolution of the technical active ingredient formula (I) in a small amount of acetone and a special solvent and emulsifier mixture referred to as IF50 (11.12% Emulsogen EL360 TM+44.44% N-methyl pyrrolidone+44.44% Dowanol DPM glycolether), to create a 50 g/l solution which was then diluted to required concentration using 0.25% or 1% Empicol ESC70 (Sodium lauryl ether sulphate)+1% ammonium sulphate as diluent. The test plants were then grown in a glasshouse under controlled conditions (at 24/16° C., day/night; 14 hours light; 65% humidity) and watered twice daily. After 13 days the test was evaluated (100=total damage to plant; 0=no damage to plant).
(§2) Ipomoea hederacea (IPOHE), Euphorbia heterophylla (EPHHL), Chenopodium album (CHEAL), Amaranthus palmeri (AMAPA), Lolium perenne (LOLPE), Digitaria sanguinalis (DIGSA), Eleusine indica (ELEIN), Echinochloa crus-galli (ECHCG), Setaia fabei (SETFA)

[1] = system: Ipomoea hederacea (IPOHE); settings: Application Rate 500 g/Ha, evaluated after 13 days; for pest or weed control at 500 g/ha: Ipomoea hederacea, post-emergence, 312 h, read-out: Control of weed species after post-emergence application, IPOHE (100=total damage to plant; 0=no damage to plant)
Protocol: as §1, §2

[2] = system: Digitaria sanguinalis (DIGSA); settings: Application Rate 500 g/Ha, evaluated after 13 days; for pest or weed control at 500 g/ha: Digitaria sanguinalis, post-emergence, 312 h, read-out: Control of weed species after post-emergence application, DIGSA (100=total damage to plant; 0=no damage to plant)
Protocol: as §1, §2

[3] = system: Amaranthus palmeri (AMAPA); settings: Application Rate 500 g/Ha, evaluated after 13 days; for pest or weed control at 500 g/ha: Amaranthus palmeri, post-emergence, 312 h, read-out: Control of weed species after post-emergence application, AMAPA (100=total damage to plant; 0=no damage to plant)
Protocol: as §1, §2

Setaia fabei (SETFA) = settings: Application Rate 500 g/Ha, evaluated after 13 days; for pest or weed control at 500 g/ha: Setaria faberi, post-emergence, 312 h, read-out: Control of weed species after post-emergence application, SETFA (100=total damage to plant; 0=no damage to plant)
Protocol: as §1, §2

[4] = system: Echinochloa crus-galli (ECHCG); settings: Application Rate 500 g/Ha, evaluated after 13 days; for pest or weed control at 500 g/ha: Echinochloa crus-galli, post-emergence, 312 h, read-out: Control of weed species after post-emergence application, ECHCG (100=total damage to plant; 0=no damage to plant)
Protocol: as §1, §2

[5] = system: Chenopodium album (CHEAL); settings: Application Rate 500 g/Ha, evaluated after 13 days; for pest or weed control at 500 g/ha: Chenopodium album, post-emergence, 312 h, read-out: Control of weed species after post-emergence application, CHEAL (100=total damage to plant; 0=no damage to plant)
Protocol: as §1, §2

Lolium perenne (LOLPE) = settings: Application Rate 500 g/Ha, evaluated after 13 days; for pest or weed control at 500 g/ha: Lolium perenne, post-emergence, 312 h, read-out: Control of weed species after post-emergence application, LOLPE (100=total damage to plant; 0=no damage to plant)
Protocol: as §1, §2

| SMILES | Control of weed species after post-emergence application, ELEIN (100=total damage to plant; 0=no damage to plant) (Eleusine indica (ELEIN)) | Control of weed species after post-emergence application, IPOHE (100=total damage to plant; 0=no damage to plant) [1] | Control of weed species after post-emergence application, DIGSA (100=total damage to plant; 0=no damage to plant) [2] | Control of weed species after post-emergence application, AMAPA (100=total damage to plant; 0=no damage to plant) [3] | Control of weed species after post-emergence application, SETFA (100=total damage to plant; 0=no damage to plant) (Setaia fabei (SETFA)) | Control of weed species after post-emergence application, ECHCG (100=total damage to plant; 0=no damage to plant) [4] | Control of weed species after post-emergence application, CHEAL (100=total damage to plant; 0=no damage to plant) [5] | Control of weed species after post-emergence application, LOLPE (100=total damage to plant; 0=no damage to plant) (Lolium perenne (LOLPE)) | pest or weed control at 500 g/ha (Eleusine indica (ELEIN)) [%] | pest or weed control at 500 g/ha [1] [%] | pest or weed control at 500 g/ha [2] [%] | pest or weed control at 500 g/ha [3] [%] | pest or weed control at 500 g/ha (Setaia fabei (SETFA)) [%] | pest or weed control at 500 g/ha [4] [%] | pest or weed control at 500 g/ha [5] [%] | pest or weed control at 500 g/ha (Lolium perenne (LOLPE)) [%] |
| --- | --- | --- | --- | --- | --- | --- | --- | --- | --- | --- | --- | --- | --- | --- | --- | --- |
| CC(C)c1csc(-c2cc[n+](CCC(=O)O)nc2)n1.O=C([O-])C(F)(F)F [Compound A24] | 20 | 10 | 10 | 0 | 20 | 30 | 0 | 10 |  |  |  |  |  |  |  |  |
| COC(=O)CCC[n+]1ccc(-c2ncco2)cn1 [Compound A69] |  |  |  |  |  |  |  |  | 90 | 40 | 90 | 90 | 90 | 80 | 90 | 30 |
| Cc1nsc(-c2cc[n+](CCS(=O)(=O)[O-])nc2)c1C [Compound A54, 2-[4-(3,4-dimethylisothiazol-5-yl)pyridazin-1-ium-1-yl]ethanesulfonate] |  |  |  |  |  |  |  |  | 80 | 10 | 90 | 80 | 70 | 70 | 50 | 60 |
| O=S(=O)([O-])CC[n+]1ccc(-c2ccno2)cn1 [Compound A79] |  |  |  |  |  |  |  |  | 100 | 80 | 90 | 100 | 90 | 80 | 90 | 70 |
| COC(=O)C[n+]1ccc(-c2ncco2)cn1 [Compound A66] |  |  |  |  |  |  |  |  | 90 | 10 | 60 | 50 | 70 | 70 | 60 | 20 |
| O=C(O)CC[n+]1ccc(-c2ccco2)cn1 [Compound A52] |  |  |  |  |  |  |  |  | 10 | 10 | 30 | 50 | 10 | 10 |  | 0 |
| O=C(O)c1ccccc1C[n+]1ccc(-c2ncco2)cn1 [Compound A91] |  |  |  |  |  |  |  |  | 40 | 20 | 40 | 40 | 20 | 20 | 60 | 10 |
| O=S(=O)([O-])CC[n+]1ccc(-c2ncc(Cl)s2)cn1 [Compound A44] |  |  |  |  |  |  |  |  | 50 | 60 | 50 | 100 | 60 | 30 |  | 30 |
